Assay type in all cases: physicochemical
The nature of series [1]: Hydrogelation test, inverted tube method. The note with it: for pH (of hydrogelation) / Conc. (hydrogelation concentration): 37 °C overnight; for Conc. (hydrogelation concentration): pH adjusted with NaOH or HCl. On the procedure: We subsequently evaluated their gelation capability (Figure S2, Supporting Information). After purification by HPLC, the obtained compounds were dissolved in water and the pH of the solution was adjusted to trigger self‐assembly and hydrogelation.
Observing gel behavior in an inverted test tube is a rapid and facile approach to determine whether a dissolved peptide formed a gel.
All compounds were placed in a glass tube (diameter 10 mm) and first dissolved in D.I water, sonicated for 5 min and putted on ice for 30 min. Then added 2x PBS buffer (5.4 mM KCl, 20 mM Na2HPO4, 4 mM KH2PO4) or D.I water to reach the final concentration of 1.0 wt%. pH was adjusted with NaOH or HCl. The solutions were stored in 37 °C incubator overnight. Gelation was confirmed by the inverting method.

The nature of series [2]: TEM of hydrogel matrix, nanofiber width. To be noted: uranyl formate stain, ImageJ, 30 measurements per picture. The protocol:
These nanofibers were entangled with one another, forming a 3D‐network that comprised the hydrogel matrix (Figure 4B).
The sample was prepared by placing a drop of peptide solution on a 200‐mesh copper grid (Electron Microscopy China) and allowed to stand for 1.0 min, then blotted with filter paper. Subsequently a drop of 1.0% Uranyl Formate was placed on the grid and allowed to stand for 1–2 min, then blotted with a piece of filter paper and left to air dry. Images were taken with a JEOL JEM‐2100Plus at 80 kV accelerating voltage. By calculating the width of peptide, The image J was used to measure 30 times for 1 TEM picture, and to gather statistics with frequency.^[ [26] ^]

Series [3] is described as follows: Oscillatory rheology, dynamic time sweep. To be noted: 37 °C, 15 mm parallel geometry, gap 0.5 mm, G′ consistently higher than G″. On the procedure:
To further explore the gelation properties and self‐assembly behavior of the candidate self‐assembling molecules, we carried out a series of biophysical characterization experiments.
All rheological experiments were performed on an Anton Parr equipped with a steel 15 mm parallel geometry tool. […] To avoid dehydration, a layer of silicon oil was applied around the edge of the sample at the start of the measurement. Dynamic strain sweep experiments were performed to ensure that the time‐sweep data was collected in the linear regime of strain. The dynamic strain sweep was performed varying the strain from 0.1 to 100% at a constant frequency (6 rad s^−1).

Residues, ends and D or L forms follow the SMILES beside them.

As to `NC(=O)[C@H](Cc1ccccc1)NC(=O)[C@H](CC(=O)O)NC(=O)CNC(=O)[C@H](CCC(=O)O)NC(=O)[C@H](Cc1ccccc1)NC(=O)[C@H](CCC(=O)O)NC(=O)[C@@H](N)Cc1c[nH]c2ccccc12` [compound 16] (H-WEFEGDF-NH2; N-terminus assumed), in series [1] (buffer 1X PBS), the “pH (of hydrogelation)” value came to 5.0 and the “Conc. (hydrogelation concentration)” value stood at 1.0 wt%. Moreover, in series [2], the nanofiber width is listed as 9–10 nm. In series [3], the “storage modulus (G′) at equilibrium” value was 1254 Pa.

With “EYVRFF [compound 368, self-assembling peptide EYVRFF]”, in series [1] (buffer 1X PBS), the “pH (of hydrogelation)” value turned out to be 3.0 and the “Conc. (hydrogelation concentration)” value stood at 1.0 wt%. Also, the “gelation outcome / gel appearance” value in series [1] (in water, pH adjusted (2–12)) was “opaque hydrogel”.

In the case of “FFFVF‐NH2 [compound 322, self-assembling peptide FFFVF‐NH2]”, in series [1] (in water), the “pH (of hydrogelation)” value is 7.0 and the “Conc. (hydrogelation concentration)” value amounted to 1.0 wt%. Also, the nanofiber width result in series [2] is on record as “approximately 14 nm”. The “storage modulus (G′) at equilibrium” value in series [3] is 21,393 Pa.

Turning to “FYGVF‐NH2 [compound 166, self-assembling peptide FYGVF‐NH2]”, in series [1] (in water), the “pH (of hydrogelation)” value turned out to be 7.0 and the “Conc. (hydrogelation concentration)” value was 0.5 wt%. Further, the nanofiber width in series [2] is on record as about 25 nm.

As to “VKVKAFIDDK [compound 560, self-assembling peptide […]]”, in series [1] (buffer 1X PBS), the “pH (of hydrogelation)” value came out at 8.0 and the “Conc. (hydrogelation concentration)” value is recorded as 1.0 wt%.
